Data published in PubChem BioAssay (NCI).
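Cultured in 96-well plates, cells were exposed to test compound for 48 hours across five concentrations. Abbreviation: GI50, concentration required for 50% inhibition of growth. TGI denotes the concentration required for complete inhibition of growth.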

Key:
Assay in all cases: growth of human tumour cells (NCI), 48 h
SF-268 CNS = test system: SF-268 CNS
HOP-92 NSCLC = test system: HOP-92 NSCLC
MALME-3M melanoma = test system: MALME-3M melanoma
CCRF-CEM leukemia = test system: CCRF-CEM leukemia
ACHN renal = test system: ACHN renal
SF-295 CNS = test system: SF-295 CNS
SR leukemia = test system: SR leukemia
MDA-MB-435 = test system: MDA-MB-435
KM12 colon = test system: KM12 colon
SK-MEL-2 melanoma = test system: SK-MEL-2 melanoma
DU-145 prostate = test system: DU-145 prostate
SN12C renal = test system: SN12C renal
CAKI-1 renal = test system: CAKI-1 renal
SK-MEL-28 melanoma = test system: SK-MEL-28 melanoma
HT29 colon = test system: HT29 colon
HOP-62 NSCLC = test system: HOP-62 NSCLC
A549 NSCLC = test system: A549 NSCLC
UO-31 renal = test system: UO-31 renal
MDA-MB-468 breast = test system: MDA-MB-468 breast
HCC-2998 colon = test system: HCC-2998 colon
A498 renal = test system: A498 renal
NCI-H23 lung = test system: NCI-H23 lung
HL-60(TB) leukemia = test system: HL-60(TB) leukemia
SNB-75 CNS = test system: SNB-75 CNS
NCI-H226 lung = test system: NCI-H226 lung
OVCAR-5 ovarian = test system: OVCAR-5 ovarian
MOLT-4 leukemia = test system: MOLT-4 leukemia
OVCAR-3 ovarian = test system: OVCAR-3 ovarian
786-0 renal = test system: 786-0 renal
OVCAR-8 ovarian = test system: OVCAR-8 ovarian
SW-620 colon = test system: SW-620 colon
PC-3 prostate = test system: PC-3 prostate
BT-549 breast = test system: BT-549 breast
OVCAR-4 ovarian = test system: OVCAR-4 ovarian
IGROV1 ovarian = test system: IGROV1 ovarian
SK-OV-3 ovarian = test system: SK-OV-3 ovarian
COLO 205 colon = test system: COLO 205 colon
SK-MEL-5 melanoma = test system: SK-MEL-5 melanoma
LOX IMVI melanoma = test system: LOX IMVI melanoma
SF-539 CNS = test system: SF-539 CNS
UACC-62 melanoma = test system: UACC-62 melanoma
NCI-H460 lung = test system: NCI-H460 lung
T-47D breast = test system: T-47D breast
SNB-19 CNS = test system: SNB-19 CNS
RXF 393 renal = test system: RXF 393 renal
HCT-116 colon = test system: HCT-116 colon
HCT-15 colon = test system: HCT-15 colon
MCF7 breast = test system: MCF7 breast
MDA-MB-231 breast = test system: MDA-MB-231 breast
UACC-257 melanoma = test system: UACC-257 melanoma
U251 CNS = test system: U251 CNS
M14 melanoma = test system: M14 melanoma
EKVX NSCLC = test system: EKVX NSCLC
K-562 leukemia = test system: K-562 leukemia
NCI-H522 lung = test system: NCI-H522 lung
TK-10 renal = test system: TK-10 renal

SMILES: C=C1CC[C@@H]2[C@]3(C)COC(c4cn[nH]c4-c4ccc(OC)cc4)O[C@@H]3CC[C@@]2(C)[C@@H]1C/C=C1/C(=O)OCC1O (some centres not stated)
- GI50 (SF-268 CNS): 3.25 µM
- TGI (SF-268 CNS): > 100 µM
- GI50 (HOP-92 NSCLC): 2020 nM
- TGI (HOP-92 NSCLC): 5 µM
- GI50 (MALME-3M melanoma): 1740 nM
- TGI (MALME-3M melanoma): 3.64 µM
- GI50 (CCRF-CEM leukemia): 2080 nM
- TGI (CCRF-CEM leukemia): 6.9 µM
- GI50 (ACHN renal): 3.52 µM
- TGI (ACHN renal): 14.1 µM
- GI50 (SF-295 CNS): 2130 nM
- TGI (SF-295 CNS): 4.77 µM
- GI50 (SR leukemia): 2870 nM
- TGI (SR leukemia): > 100 µM
- GI50 (MDA-MB-435): 2240 nM
- TGI (MDA-MB-435): 6.42 µM
- GI50 (KM12 colon): 2380 nM
- TGI (KM12 colon): 5.43 µM
- GI50 (SK-MEL-2 melanoma): 3.97 µM
- TGI (SK-MEL-2 melanoma): 17.8 µM
- GI50 (DU-145 prostate): 3.23 µM
- TGI (DU-145 prostate): 12.1 µM
- GI50 (SN12C renal): 3.54 µM
- TGI (SN12C renal): 16.5 µM
- GI50 (CAKI-1 renal): 2960 nM
- TGI (CAKI-1 renal): 12.1 µM
- GI50 (SK-MEL-28 melanoma): 2540 nM
- TGI (SK-MEL-28 melanoma): 5.91 µM
- GI50 (HT29 colon): 2860 nM
- TGI (HT29 colon): 7.91 µM
- GI50 (HOP-62 NSCLC): 3.44 µM
- TGI (HOP-62 NSCLC): 14.2 µM
- GI50 (A549 NSCLC): 3.32 µM
- TGI (A549 NSCLC): 19.5 µM
- GI50 (UO-31 renal): 1700 nM
- TGI (UO-31 renal): 3.91 µM
- GI50 (MDA-MB-468 breast): 2170 nM
- TGI (MDA-MB-468 breast): 5.6 µM
- GI50 (HCC-2998 colon): 2870 nM
- TGI (HCC-2998 colon): 8.28 µM
- GI50 (A498 renal): 17 µM
- TGI (A498 renal): 50.5 µM
- GI50 (NCI-H23 lung): 2510 nM
- TGI (NCI-H23 lung): 7.69 µM
- GI50 (HL-60(TB) leukemia): 2690 nM
- TGI (HL-60(TB) leukemia): 14.7 µM
- GI50 (SNB-75 CNS): 1750 nM
- TGI (SNB-75 CNS): 5.86 µM
- GI50 (NCI-H226 lung): 3.58 µM
- TGI (NCI-H226 lung): 18.4 µM
- GI50 (OVCAR-5 ovarian): 3.9 µM
- TGI (OVCAR-5 ovarian): 13.4 µM
- GI50 (MOLT-4 leukemia): 2210 nM
- TGI (MOLT-4 leukemia): > 100 µM
- GI50 (OVCAR-3 ovarian): 2270 nM
- TGI (OVCAR-3 ovarian): 5.87 µM
- GI50 (786-0 renal): 1920 nM
- TGI (786-0 renal): 3.6 µM
- GI50 (OVCAR-8 ovarian): 3.34 µM
- TGI (OVCAR-8 ovarian): > 100 µM
- GI50 (SW-620 colon): 2290 nM
- TGI (SW-620 colon): 5.56 µM
- GI50 (PC-3 prostate): 2980 nM
- TGI (PC-3 prostate): > 100 µM
- GI50 (BT-549 breast): 2360 nM
- TGI (BT-549 breast): 7.22 µM
- GI50 (OVCAR-4 ovarian): 2960 nM
- TGI (OVCAR-4 ovarian): > 100 µM
- GI50 (IGROV1 ovarian): 3.98 µM
- TGI (IGROV1 ovarian): 20 µM
- GI50 (SK-OV-3 ovarian): 10.5 µM
- TGI (SK-OV-3 ovarian): 67.4 µM
- GI50 (COLO 205 colon): 1950 nM
- TGI (COLO 205 colon): 3.73 µM
- GI50 (SK-MEL-5 melanoma): 1520 nM
- TGI (SK-MEL-5 melanoma): 2950 nM
- GI50 (LOX IMVI melanoma): 1730 nM
- TGI (LOX IMVI melanoma): 3.42 µM
- GI50 (SF-539 CNS): 2030 nM
- TGI (SF-539 CNS): 4.36 µM
- GI50 (UACC-62 melanoma): 1680 nM
- TGI (UACC-62 melanoma): 4.06 µM
- GI50 (NCI-H460 lung): 1910 nM
- TGI (NCI-H460 lung): 3.9 µM
- GI50 (T-47D breast): 3.25 µM
- TGI (T-47D breast): > 100 µM
- GI50 (SNB-19 CNS): 4.42 µM
- TGI (SNB-19 CNS): 19.4 µM
- GI50 (RXF 393 renal): 1740 nM
- TGI (RXF 393 renal): 3.4 µM
- GI50 (HCT-116 colon): 1860 nM
- TGI (HCT-116 colon): 3.57 µM
- GI50 (HCT-15 colon): 2540 nM
- TGI (HCT-15 colon): 8.37 µM
- GI50 (MCF7 breast): 2480 nM
- TGI (MCF7 breast): 11.8 µM
- GI50 (MDA-MB-231 breast): 2390 nM
- TGI (MDA-MB-231 breast): 5.48 µM
- GI50 (UACC-257 melanoma): 2460 nM
- TGI (UACC-257 melanoma): 8.92 µM
- GI50 (U251 CNS): 2770 nM
- TGI (U251 CNS): 10.7 µM
- GI50 (M14 melanoma): 3.14 µM
- TGI (M14 melanoma): 13.2 µM
- GI50 (EKVX NSCLC): 2660 nM
- TGI (EKVX NSCLC): 10.5 µM
- GI50 (K-562 leukemia): 2710 nM
- TGI (K-562 leukemia): > 100 µM
- GI50 (NCI-H522 lung): 2490 nM
- TGI (NCI-H522 lung): 7.81 µM
- GI50 (TK-10 renal): 4.12 µM
- TGI (TK-10 renal): 16.7 µM
